How the values were obtained:
[1] = test system: mice with DSS-induced colitis; assay: Disease activity index (DAI) in DSS-induced acute colitis model; format: in vivo, BALB/c mice
Procedure: For use in this experiment, female BALB/c mice (7 weeks old) were purchased from Saeronbio Inc. (Gyeonggi-do, Korea) and acclimatized for 7 days under SPF conditions at Kyonggi University (temperature 23±2° C., humidity 50±5%, 12-hour light/dark cycle). All experiments adhered to the guidelines of the university's Animal Ethics Committee. An acute colitis model was induced using dextran sodium sulfate (DSS). Mice were divided into seven groups of seven mice each. 1) A normal control group received purified water orally for 28 days. 2) A colitis group received purified water for 28 days and 5% DSS solution freely from days 21 to 28 to induce colitis. […] On the 29th day, each mouse was sacrificed, and the length of the colon and small intestine and the weight of the spleen were measured and evaluated. […] During the DSS treatment, colitis severity was determined using the disease activity index (DAI), which measures weight loss, stool consistency, rectal bleeding, and perianal blood presence according to the criteria in Table 3. After monitoring with the naked eye every two days for eight days, the scores were summed and calculated. […]

[2] = test system: mice with DSS-induced colitis; assay: Colon length in DSS-induced acute colitis model; format: in vivo, BALB/c mice
Procedure: For use in this experiment, female BALB/c mice (7 weeks old) were purchased from Saeronbio Inc. (Gyeonggi-do, Korea) and acclimatized for 7 days under SPF conditions at Kyonggi University (temperature 23±2° C., humidity 50±5%, 12-hour light/dark cycle). All experiments adhered to the guidelines of the university's Animal Ethics Committee. An acute colitis model was induced using dextran sodium sulfate (DSS). Mice were divided into seven groups of seven mice each. 1) A normal control group received purified water orally for 28 days. 2) A colitis group received purified water for 28 days and 5% DSS solution freely from days 21 to 28 to induce colitis. […] In addition, to colitis-induced mice, the galacto-oligosaccharides from 5) company A and 6) company B were each administered at a dose of 800 mg/kg for 28 days while 7) the positive control group was administered 100 mg/kg of the anti-inflammatory agent 5-ASA (5-aminosalicylic acid) for 28 days. On the 29th day, each mouse was sacrificed, and the length of the colon and small intestine and the weight of the spleen were measured and evaluated. After measurement, the colon tissue was cut into 1 cm lengths, and the cecum was excised and placed into separate Ep. tubes for storage in a deep freezer for future experiments. Portions of the remaining colon tissue were fixed in a 4% formalin solution. […]

IL-6 = IL-6 level in colon tissue of DSS-induced colitis mice; format: in vivo, BALB/c mice
Procedure: (§1) Mice were divided into seven groups of seven mice each. 1) A normal control group received purified water orally for 28 days. 2) A colitis group received purified water for 28 days and 5% DSS solution freely from days 21 to 28 to induce colitis. The galacto-oligosaccharide of the present disclosure was administered at a dose of 3) 400 mg/kg and 4) 800 mg/kg to two groups of colitis-induced mice, respectively, for 28 days. In addition, to colitis-induced mice, the galacto-oligosaccharides from 5) company A and 6) company B were each administered at a dose of 800 mg/kg for 28 days while 7) the positive control group was administered 100 mg/kg of the anti-inflammatory agent 5-ASA (5-aminosalicylic acid) for 28 days. On the 29th day, each mouse was sacrificed, and the length of the colon and small intestine and the weight of the spleen were measured and evaluated. After measurement, the colon tissue was cut into 1 cm lengths, and the cecum was excised and placed into separate Ep. tubes for storage in a deep freezer for future experiments. […]
(§2) First, colon tissue samples were suspended in PBS containing a protease inhibitor (Roche Diagnostics Corp., Indianapolis, IN, USA) and homogenized uniformly using a TaKaRa BioMasher (Takara Bio Inc., Shiga, Japan). […] Protein concentration was quantified using a bicinchoninic acid kit (Thermo Scientific, Waltham, MA, USA).

TNF-α = TNF-α level in colon tissue of DSS-induced colitis mice; format: in vivo, BALB/c mice
Procedure: as §1, §2

myeloperoxidase (MPO) = assay: MPO level in colon tissue of DSS-induced colitis mice; format: in vivo, BALB/c mice; conditions: 100 mg/kg for 28 days (positive control)
Procedure: as §1, §2

[3] = test system: mucin and goblet cells in the colon; assay: Histological analysis of colon (Alcian blue-PAS staining) in DSS-induced colitis mice; format: in vivo, BALB/c mice; conditions: colon sections, FIG. 9; dose not stated
[4] = test system: intestinal short chain fatty acids; assay: Short chain fatty acid (SCFA) production in cecum of DSS-induced mice (GC); format: in vivo
Procedure: To determine the effect of administering the galacto-oligosaccharide of the present disclosure on the intestinal short chain fatty acids in DSS-induced mice, 5-ASA and the GOS of the present disclosure were administered at low (7 mg/mouse), medium (14 mg/mouse), and high (21 mg/mouse) concentrations to DSS-induced mice according to the schedule described in Example 3-1. Afterward, the cecums of the mice were collected, homogenized with a homogenizer, and suspended in 80% methanol. The samples were then centrifuged at 13,000 rpm for 10 minutes, diluted to a final concentration of 1 g/mL, and filtered through a 0.45 μm syringe filter. Quantitative analysis of SCFAs was performed by preparing each STD at different concentrations and using 2-ethylbutyric acid as the internal standard (ISTD). The standard curves were calculated based on the peak area ratios. In brief, the SCFA content was measured using gas chromatography (GC) equipped with a DB-FFAP capillary column to determine the production capacity of six SCFAs (acetic acid, propionic acid, butyric acid, valeric acid, caproic acid, and heptanoic acid). The GC analysis conditions were as follows: 100° C. (0.5 min), 100° C.→180° C. (8° C./min), 180° C. (1.0 min), 180° C.→200° C. (20° C./min), 200° C. (5.0 min).

[5] = 100 mg/kg (positive control), DSS colitis mice
[6] = 100 mg/kg for 28 days (positive control), 5% DSS days 21-28
[7] = 100 mg/kg for 28 days (positive control), DSS colitis
[8] = PC, dose 100 mg/kg, DSS-induced mice

Structure (SMILES): Nc1ccc(O)c(C(=O)O)c1 [5-ASA, 5-aminosalicylic acid]
- Colitis amelioration effect (DAI), in words [1, 5]: did not show any colitis amelioration effect
- Disease Activity Index of 8 day (Score) [1, 6]: 10.3 Score
- Inhibition of the reduction of colon length, in words [2, 5]: showed an efficacy in inhibiting the reduction of colon length
- Colon length [2, 6]: 5.2 cm
- Level of IL-6 versus DSS group, in words (IL-6; [5]): greatly reduced
- IL-6 (IL-6; [7]): 12 pg/mg
- Level of TNF-α versus DSS group, in words (TNF-α; [5]): greatly reduced
- TNF-α (TNF-α; [7]): 100 pg/mg
- MPO (myeloperoxidase (MPO)): 45 pg/mg
- Amount of mucin (Alcian blue-PAS) compared to the DSS-treated group [3]: the amount of mucin recovered
- Goblet cells compared to the DSS-treated group [3]: goblet cells were observed
- All SCFAs except acetic acid compared to the NC treated with 5% DSS alone, in words ([4]; PC group, cecum): slight increase
- Acetic acid, share of total SCFA (value in parentheses) [4, 8]: 73.3
- Acetic acid, short chain fatty acid production in cecum [4, 8]: 8917 µM
- Butyric acid, share of total SCFA (value in parentheses) [4, 8]: 15.8
- Butyric acid, short chain fatty acid production in cecum [4, 8]: 1923 µM
- Propionic acid, share of total SCFA (value in parentheses) [4, 8]: 10.9
- Propionic acid, short chain fatty acid production in cecum [4, 8]: 1321 µM
- Total SCFA, share of total SCFA (value in parentheses) [4, 8]: 100
- Total SCFA, short chain fatty acid production in cecum [4, 8]: 12161 µM

— US20250090563A1, “COMPOSITION FOR PREVENTION, AMELIORATION OR TREATMENT OF INFLAMMATORY BOWEL DISEASE COMPRISING GALACTO-OLIGOSACCHARIDE” (NEO CREMAR CO., LTD., priority 2022, published 2025)
